Laboratory results published in patent EP4741389A1, “KAT6 INHIBITOR” (Shanghai Qilu Pharmaceutical Research and Development …, priority 2023, dated 2025).

Experiments:
[1] = test system: ZR-75-1 H3K23 Acetylation; test: Histone H3 acetylation assay (H3K23 acetylation in ZR-75-1 cells); type: cell-based; details: Homo sapiens, 72 hours incubation, Odyssey CLx fluorescence, read-out: ZR-75-1 H3K23 Acetylation Inhibition IC50
Method: III. Histone H3 acetylation assay
• 1. ZR-75-1 cells were seeded at 5000 cells/40 µL per well in 384-well plates and cultured overnight in an incubator at 37°C & 5% CO2. • 2. 40 nL of serially diluted compounds were added to the 384-well plates, followed by further incubation for 72 hours. • 3. The supernatant was discarded, and 8 w/v% paraformaldehyde (final concentration was 4 w/v%) was added directly to the wells to fix the cells at room temperature. • 4. After washing twice with PBS, a permeabilization agent (40 µL of methanol) was added and incubated for 10 minutes to permeabilize the cell membranes. • 5. After washing twice with PBS, a blocking buffer was added and incubated at room temperature for 1 hour for blocking. • 6. The blocking buffer was discarded, and 20 µL of primary antibodies (recombinant Anti-Histone H3 (acetyl K23) antibody and Anti-Histone H4 antibody) diluted in blocking buffer (1:1000 by volume dilution) were added, followed by incubation at 4°C overnight. • 7. After washing three times with PBST (0.05 vol% Tween-20 in PBS), 20 µL of fluorescent secondary antibodies (IRDye 680RD Goat anti-MOUSE, Licor, 926-68070; IRDye 800CW Goat anti-Rabbit, Licor, 926-32211) diluted in blocking buffer (1:2000 by volume dilution) were added, followed by incubation at room temperature, protected from light, for 1 hour. Then, the plates were washed three times with PBST. • 8. Scanning was performed using an Odyssey CLx, and the fluorescence signal value for each well was quantified. IC50 values were calculated by nonlinear regression using a four-parameter logistic equation in GraphPad Prism 8 software.

KAT6B = target: T1, KAT6B (Homo sapiens, UniProt Q8WYB5); test: KATs acetyltransferase enzyme activity assay (TR-FRET), KAT6B; type: biochemical; details: Biotin-H3 (1-21) and AcCOA, 90 minutes at room temperature
T1 construct: purchased Active Motif 81224
Method: (§1) I. KATs acetyltransferase enzyme activity assay
(§2) • 1. The inhibitory effect of compounds on the acetyltransferase activity of KATs was evaluated using the Time-Resolved Fluorescence Resonance Energy Transfer (TR-FRET) assay. The assay was conducted in 384-well plates using Tris-HCl buffer. • 2. Compounds were diluted in DMSO and transferred to 384-well plates. Enzyme solutions (KAT6: active motif (kit), 81223; KAT6B: active motif, 81224; KAT5: SignalChem, K314-380G; KAT7: ICE, S2210F-H21HF; KAT8: Active motif, 81225) were added and the mixture was incubated at room temperature for 15 minutes. • 3. Subsequently, 2.5 µL of a mixture containing KAT6A/KAT6B: Biotin-H3 (1-21, Genscript, C6829GL060) or KAT5/7/8: Bio-H4 (1-25, Genscript, C736BGL100) AcCOA (Sigma, A2056) was added, and the reaction proceeded at room temperature for 90 minutes. • 4. After the reaction, a detection mixture containing Europium-anti-acetyl-Histone H4 Lysine (H4Kac pan) Antibody (Perkin Elmer, TRF0412) and LANCE Ultra ULight™-Streptavidin in LANCE™ Detection buffer (10x) (Perkin Elmer, CR97-100) was added, followed by incubation at room temperature for 60 minutes. • 5. HTRF signals were measured using a BMG PHERAstar FSX (Ratio: 665nm/620nm). IC50 values were calculated by nonlinear regression using a four-parameter logistic equation in GraphPad Prism 8 software.

KAT6A = target: T2, KAT6A (Homo sapiens, UniProt Q92794); test: KATs acetyltransferase enzyme activity assay (TR-FRET), KAT6A; type: biochemical; details: Biotin-H3 (1-21) and AcCOA, 90 minutes at room temperature
T2 construct: purchased Active Motif 81223
Method: as §1
as §2, with “Enzyme solutions (KAT6: active motif (kit), 81223; KAT6B: active motif, 81224; KAT5: SignalChem, K314-380G; KAT7: ICE, S2210F-H21HF; KAT8: Active motif, 81225) were added and the mixture was incubated at room temperature for 15 minutes. • 3.” left out, “HTRF signals were measured using a BMG PHERAstar FSX (Ratio: 665nm/620nm).” left out

ZR-75-1 cells = test: ZR-75-1 cell proliferation assay (CellTiter-Glo); type: cell-based; details: Homo sapiens, ZR-75-1, 240 h, total culture period of 10 days, read-out: ZR-75-1 Proliferation Inhibition IC50
Method: II. ZR-75-1 cell proliferation assay
• 1. ZR-75-1 cells were seeded in 96-well plates and cultured overnight in an incubator at 37°C & 5% CO2. • 2. Compounds were diluted using culture medium and added to the 96-well plates. The plates were placed back into the incubator for continued culture. Every 5 days, the cells were trypsinized, counted, and re-seeded. After the cells had fully adhered, compounds were added again for incubation, for a total culture period of 10 days. • 3. After the culture period, 60 µL of CellTiter-Glo reagent (Promega, G7573) was added to each well. The plates were protected from light and shaken for 2 minutes to lyse the cells, followed by further incubation at room temperature, protected from light, for 30 minutes. • 4. Luminescence signals were read using a BMG PHERAstar FSX. IC50 values were calculated by nonlinear regression using a four-parameter logistic equation in GraphPad Prism 8 software.

T2 sequence (Q92794 488-778 limits assumed): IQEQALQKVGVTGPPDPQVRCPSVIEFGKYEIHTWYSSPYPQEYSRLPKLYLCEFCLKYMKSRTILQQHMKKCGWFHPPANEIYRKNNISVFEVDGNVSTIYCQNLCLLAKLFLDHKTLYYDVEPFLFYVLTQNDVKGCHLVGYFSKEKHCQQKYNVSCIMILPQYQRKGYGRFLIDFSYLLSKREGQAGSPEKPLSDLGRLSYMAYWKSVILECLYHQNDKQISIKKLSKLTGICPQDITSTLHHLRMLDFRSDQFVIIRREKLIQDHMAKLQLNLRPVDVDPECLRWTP
T1 sequence (Q8WYB5 whole entry): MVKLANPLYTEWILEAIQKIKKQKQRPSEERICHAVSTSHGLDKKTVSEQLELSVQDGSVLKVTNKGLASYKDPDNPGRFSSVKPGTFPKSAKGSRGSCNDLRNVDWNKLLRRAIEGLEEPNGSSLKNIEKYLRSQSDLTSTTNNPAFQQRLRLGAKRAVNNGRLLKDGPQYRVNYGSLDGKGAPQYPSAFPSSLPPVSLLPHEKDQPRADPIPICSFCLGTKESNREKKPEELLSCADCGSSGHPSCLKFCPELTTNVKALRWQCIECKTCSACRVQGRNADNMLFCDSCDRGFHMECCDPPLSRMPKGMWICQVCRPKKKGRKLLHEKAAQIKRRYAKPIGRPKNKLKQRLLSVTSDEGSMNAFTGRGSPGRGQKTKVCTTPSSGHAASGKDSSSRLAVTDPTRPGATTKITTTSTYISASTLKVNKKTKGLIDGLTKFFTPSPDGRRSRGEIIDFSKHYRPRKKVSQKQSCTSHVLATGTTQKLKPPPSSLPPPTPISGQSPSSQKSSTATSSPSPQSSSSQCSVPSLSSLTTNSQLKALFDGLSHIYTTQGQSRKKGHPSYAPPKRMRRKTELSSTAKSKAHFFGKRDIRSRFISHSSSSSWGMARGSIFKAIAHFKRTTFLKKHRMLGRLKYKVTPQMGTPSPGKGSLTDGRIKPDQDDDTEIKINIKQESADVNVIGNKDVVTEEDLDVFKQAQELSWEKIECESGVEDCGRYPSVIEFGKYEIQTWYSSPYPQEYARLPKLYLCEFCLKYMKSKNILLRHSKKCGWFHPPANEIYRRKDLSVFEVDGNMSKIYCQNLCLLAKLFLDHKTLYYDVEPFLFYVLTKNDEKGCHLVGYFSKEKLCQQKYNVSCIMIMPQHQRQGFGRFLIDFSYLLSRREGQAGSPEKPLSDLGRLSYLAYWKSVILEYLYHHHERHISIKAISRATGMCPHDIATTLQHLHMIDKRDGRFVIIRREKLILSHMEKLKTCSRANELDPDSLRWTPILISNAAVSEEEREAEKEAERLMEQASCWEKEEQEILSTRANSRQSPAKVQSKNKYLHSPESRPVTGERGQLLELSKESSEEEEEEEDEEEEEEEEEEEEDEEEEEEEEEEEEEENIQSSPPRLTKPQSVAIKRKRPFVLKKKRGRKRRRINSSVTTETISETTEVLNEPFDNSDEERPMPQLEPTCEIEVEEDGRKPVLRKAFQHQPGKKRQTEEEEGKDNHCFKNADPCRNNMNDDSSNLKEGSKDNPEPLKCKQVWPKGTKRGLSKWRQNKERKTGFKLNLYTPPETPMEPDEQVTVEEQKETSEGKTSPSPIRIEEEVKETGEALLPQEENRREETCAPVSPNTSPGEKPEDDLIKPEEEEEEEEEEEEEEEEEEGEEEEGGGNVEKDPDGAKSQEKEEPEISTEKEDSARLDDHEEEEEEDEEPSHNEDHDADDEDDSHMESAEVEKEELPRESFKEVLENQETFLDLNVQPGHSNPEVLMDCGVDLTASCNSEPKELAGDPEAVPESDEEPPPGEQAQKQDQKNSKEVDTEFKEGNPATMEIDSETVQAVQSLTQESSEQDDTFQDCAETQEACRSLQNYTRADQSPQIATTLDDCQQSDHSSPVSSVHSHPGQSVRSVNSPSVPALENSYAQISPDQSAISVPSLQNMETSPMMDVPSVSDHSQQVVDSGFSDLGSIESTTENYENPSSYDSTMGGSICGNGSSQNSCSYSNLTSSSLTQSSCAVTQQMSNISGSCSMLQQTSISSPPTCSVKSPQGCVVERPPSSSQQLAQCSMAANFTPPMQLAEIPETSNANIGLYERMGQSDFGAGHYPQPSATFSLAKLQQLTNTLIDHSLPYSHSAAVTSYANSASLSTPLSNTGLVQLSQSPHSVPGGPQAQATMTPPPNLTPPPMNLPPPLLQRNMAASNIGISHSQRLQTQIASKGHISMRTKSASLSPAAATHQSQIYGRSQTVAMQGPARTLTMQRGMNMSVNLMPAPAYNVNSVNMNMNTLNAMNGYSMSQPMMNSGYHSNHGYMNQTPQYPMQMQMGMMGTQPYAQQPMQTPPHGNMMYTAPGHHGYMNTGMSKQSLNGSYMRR

SMILES | IC50 [1] [nM] | IC50 (KAT6B) [nM] | IC50 (KAT6A) [nM] | IC50 (ZR-75-1 cells) [nM]
COc1ccc2c(c1S(=O)(=O)Nc1noc3cc(Cn4cccn4)cc(OC)c13)OC[C@H]1C[C@@H]21 [Compound 5-P1, (1aS,7bR)-N-(6-((1H-Pyrazol-1-yl)methyl)-4-methoxybenzo[d]isoxazol-3-yl)-5-methoxy-1,1a,2,7b-tetrahydrocyclopropa[c]chromene-4-sulfonamide] | 1.9 | 11.1 | 2.5 | 0.3
COc1ccc2c(c1S(=O)(=O)Nc1noc3cc(Cn4cccn4)c4c(c13)OCC4)OCC1CC21 (stereo not drawn) [Compound 37, N-(4-((1H-Pyrazol-1-yl)methyl)-2,3-dihydrobenzofuro[7,6-d]isoxazol-8-yl)-5-methoxy-1,1a,2,7b-tetrahydrocyclopropa[c]chromene-4-sulfonamide] | 1.2 | 4.1 | 1.6 | 0.4
COc1ccc2c(c1S(=O)(=O)Nc1noc3cc(Cn4cccn4)c(F)c(OC)c13)OCCCO2 [Compound 29, N-(6-((1H-Pyrazol-1-yl)methyl)-5-fluoro-4-methoxybenzo[d]isoxazol-3-yl)-7-methoxy-3,4-dihydro-2H-benzo[b][1,4]dioxepine-6-sulfonamide] | 4.6 | 23.3 | 3 | 0.6
COc1ccc2c(c1S(=O)(=O)Nc1noc3cc(Cn4cccn4)c(OC)c(C)c13)OCC21CC1 [Compound 39, N-(6-((1H-Pyrazol-1-yl)methyl)-5-methoxy-4-methylbenzo[d]isoxazol-3-yl)-6-methoxy-2H-spiro[benzofuran-3,1'-cyclopropane]-7-sulfonamide] | 23.7 | 37.6 | 2.2 | 2.6
CCc1c(Cn2cccn2)cc2onc(NS(=O)(=O)c3c(OC)ccc4c3OCC3CC43)c2c1OC (stereo not drawn) [Compound 27, N-(6-((1H-Pyrazol-1-yl)methyl)-5-ethyl-4-methoxybenzo[d]isoxazol-3-yl)-5-methoxy-1,1a,2,7b-tetrahydrocyclopropa[c]chromene-4-sulfonamide] | 27.1 | 8.9 | 1.3 | 11.5
COc1ccc2c(c1S(=O)(=O)Nc1noc3cc(Cn4cccn4)c(OC(F)F)cc13)OCCCO2 [Compound 13, N-(6-((1H-pyrazol-1-yl)methyl)-5-(difluoromethoxy)benzo[d]isoxazol-3-yl)-7-methoxy-3,4-dihydro-2H-benzo [b] [1,4] dioxepine-6-sulfonamide] | 34.3 |  |  | 14.2
COc1ccc2c(c1S(=O)(=O)Nc1noc3cc(Cn4cccn4)c4c(c13)OCC4)OCCCO2 [Compound 35, N-(4-((1H-Pyrazol-1-yl)methyl)-2,3-dihydrobenzofuro[7,6-d]isoxazol-8-yl)-7-methoxy-3,4-dihydro-2H-benzo[b][1,4]dioxepine-6-sulfonamide] | 15 | 45.9 | 4.3 | 3.3
COc1ccc2c(c1S(=O)(=O)Nc1noc3cc(Cn4cccn4)c(F)c(OC)c13)OCC1CC21 (stereo not drawn) [Compound 30, N-(6-((1H-Pyrazol-1-yl)methyl)-5-fluoro-4-methoxybenzo[d]isoxazol-3-yl)-5-methoxy-1,1a,2,7b-tetrahydrocyclopropa[c]chromene-4-sulfonamide] | 0.8 | 1.8 | 0.8 | 0.15
COc1cc2c(cc1S(=O)(=O)Nc1noc3cc(Cn4cccn4)cc(OC)c13)OCCOC2 [Compound 8] | 10.3 | 40.8 | 2.7 | 4.2
COc1ccc2c(c1S(=O)(=O)Nc1noc3cc(Cn4cccn4)c(OC)c(C)c13)OCC1CC21 (stereo not drawn) [Compound 40, N-(6-((1H-Pyrazol-1-yl)methyl)-5-methoxy-4-methylbenzo[d]isoxazol-3-yl)-5-methoxy-1,1a,2,7b-tetrahydrocyclopropa[c]chromene-4-sulfonamide] | 12.4 | 12.9 | 1.7 | 1.6
COc1ccc2c(c1S(=O)(=O)Nc1noc3cc(Cn4cccn4)c(F)cc13)OCCCO2 [Compound 12, N-(6-((1H-Pyrazol-1-yl)methyl)-5-fluorobenzo[d]isoxazol-3-yl)-7-methoxy-3,4-dihydro-2H-benzo [b] [1,4] dioxepine-6-sulfonamide] | 4.5 | 40 | 6.5 | 1.4

The remaining molecules from weak to strong by IC50 [1], led by results:

IC50 [1] [nM] | IC50 (KAT6B) [nM] | IC50 (KAT6A) [nM] | SMILES | IC50 (ZR-75-1 cells) [nM]
37.7 | 12.3 | 2.2 | CCc1c(Cn2cccn2)cc2onc(NS(=O)(=O)c3c(OC)ccc4c3OCC43CC3)c2c1OC [Compound 28, N-(6-((1H-Pyrazol-1-yl)methyl)-5-ethyl-4-methoxybenzo[d]isoxazol-3-yl)-6-methoxy-2 H-spiro[benzofuran-3,1'-cyclopropane]-7-sulfonamide] | 16.6
12.7 | 46.8 | 2.5 | COc1ccc2c(c1S(=O)(=O)Nc1noc3cc(Cn4cccn4)cc(OC)c13)OCC(F)(F)CO2 [Compound 11, N-(6-((1H-Pyrazol-1-yl)methyl)-4-methoxybenzo[d]isoxazol-3-yl)-3,3-difluoro-7-methoxy-3,4-dihydro-2H-benzo[b] [1,4]dioxepine-6-sulfonamide] | 
9 | 81.7 | 12.9 | COc1cc(Cn2cccn2)cc2onc(NS(=O)(=O)c3cccc4c3OCCCO4)c12 [Compound 1, N-(6-((1H-Pyrazol-1-yl)methyl)-4-methoxybenzo[d]isoxazol-3-yl)-3,4-dihydro-2H-benz o[b] [1,4]dioxepine-6-sulfonamide] | 6.7
6.5 | 51.6 | 6.8 | COc1ccc2c(c1S(=O)(=O)Nc1noc3cc(Cn4cccn4)cc(OC)c13)OC1CC1O2 (stereo not drawn) [Compound 50, N-(6-((1H-Pyrazol-1-yl)methyl)-4-methoxybenzo[d]isoxazol-3-yl)-4-methoxy-1a,7a-dihydro-1H-benzo[b]cyclopropa[e][1,4]dioxine-3-sulfonamide] | 
5.3 | 11.8 | 1.3 | COc1cc2c(cc1S(=O)(=O)Nc1noc3cc(Cn4cccn4)cc(OC)c13)C1CC1CO2 (stereo not drawn) [Compound 6, N-(6-((1H-Pyrazol-1-yl)methyl)-4-methoxybenzo[d]isoxazol-3-yl)-5-methoxy-1,1a,2,7b-tetrahydrocyclopropa[c] chromene-6-sulfonamide] | 0.6
